# Experimental data published in PMC10881971, “Hepa-ToxMOA: a pathway-screening method for evaluating cellular stress and hepatic metabolic-dependent toxicity of natural products” (Scientific Reports, 2024).
# Assays:
# NF-κB = NF-κB cell line, CPPA 6.25, 12.5, 25 μM, 24 h, S9 fraction (Fig. 2b)
# [1] = tested on: AP1, P53, Nrf2, and NF-κB; conditions: for Toxic (natural products exceeding Score 3, Venn diagram list Fig. 3c): human
# AP1 = AP1 cell line, CPPA 6.25, 12.5, 25 μM, 24 h, S9 fraction (Fig. 2b)
# [2] = tested on: Hepa-ToxMOA cell lines (HepG2); conditions: four Hepa-ToxMOA cell lines, increasing CPPA concentration (6.25, 12.5, 25 μM), 1% S9 treatment, 24 h
# CYP3A = tested on: CYP3A; design: method as in PMID 30778299; conditions: cited from earlier work
# CYP3A5 = tested on: CYP3A5; design: method as in doi:10.1016/j.ccr.2020.213600; conditions: cited from earlier work
# CYP3A4 [3] = conditions: cited from earlier work
# CYP2C19 = tested on: CYP2C19; design: method as in PMID 25815638; conditions: causing mitochondrial dysfunction and hepatotoxicity; cited from earlier work
# diabetic mice = tested on: diabetic mice; design: method as in PMID 34678724; conditions: cited from earlier work
# liver fibrosis = tested on: liver fibrosis; design: method as in PMID 30502394; conditions: cited from earlier work
# [4] = tested on: diabetic C57BL/KsJ-db/db mice; design: method as in PMID 29554661; conditions: cited from earlier work
# CYP3A4 [5] = tested on: CYP3A4; design: method as in PMID 20959500; conditions: via the activation of NR1I2; cited from earlier work
compound,measurement,setting,value
"O=P1(N(CCCl)CCCl)NCCCO1 (stereo not drawn) [CPPA, cyclophosphamide, reference compound]",GFP intensity,NF-κB,increased in a dose-dependent manner
same,GFP intensity with S9 fractions compared to without S9 fractions,[1],higher
same,GFP intensity,P53,"tendency to increase, although not in a dose-dependent manner"
same,GFP intensity,Nrf2,increased in a dose-dependent manner
same,GFP intensity,AP1,increased in a dose-dependent manner
same,cell viability,[2],significantly reduced
CC(=O)O[C@H]1C[C@]2(O)[C@@H]3CC[C@@H]4C[C@@H](O)CC[C@]4(C)[C@H]3CC[C@]2(C)[C@H]1c1ccc(=O)oc1 [Bufotalin],metabolism by CYP3A,CYP3A,metabolized by CYP3A to 5ß-hydroxy-bufotalin
same,substrate of CYP3A5,CYP3A5,substrates
same,active (increased GFP intensity) for all Hepa-ToxMOA cell lines (Fig. 3d),[1],commonly active
same,sum of activity scores compared between metabolic activation and non-metabolic conditions,[1],more active without metabolic activation
same,"Toxic (natural products exceeding Score 3, Venn diagram list Fig. 3c)",[1],S9- only
same,substrate of CYP3A4,CYP3A4 [3],substrates
O=C(O)c1cc(O)c2c(c1)C(=O)c1cccc(O)c1C2=O [Rhein],metabolic activation by CYP2C19,CYP2C19,metabolically activated by CYP2C19
CC(C)=CCc1c(O)cc2oc3cc(O)c(O)c(CC=C(C)C)c3c(=O)c2c1O [Gamma-mangostin],fasting blood glucose levels,diabetic mice,attenuate fasting blood glucose levels
same,effect on liver fibrosis,liver fibrosis,alleviate liver fibrosis
CC(C)=CC[C@H](O)C1=CC(=O)c2c(O)ccc(O)c2C1=O [Alkannin],sum of activity scores compared between metabolic activation and non-metabolic conditions,[1],more active without metabolic activation
same,toxicity in Hepa-ToxMOA cell lines under metabolic activity conditions,[1],reduced toxicity
same,"Toxic (natural products exceeding Score 3, Venn diagram list Fig. 3c)",[1],S9- only
same,effect on liver injury,[4],hepatoprotective effects
"CC[C@]1(O)C[C@@H]2CN(CCc3c([nH]c4ccccc34)[C@@](C(=O)OC)(c3cc4c(cc3OC)N(C)[C@H]3[C@@](O)(C(=O)OC)[C@H](OC(C)=O)[C@]5(CC)C=CCN6CC[C@]43[C@@H]65)C2)C1 [vinblastine, reference compound]",induction of CYP3A4,CYP3A4 [5],induce CYP3A4
same,substrate of CYP3A4,CYP3A4 [3],substrate
